Measurements published in US20080207728A1, “BICYCLIC ACYLTRYPTOPHANOLS” (priority 2006, published 2008).

These compounds were tested against T1, human FSH receptor (Homo sapiens, UniProt P23945) (assay: HTRF assay for measuring cAMP in cells (FSH antagonism)). Conditions: Table 2; hFSHR clone 16 cells (CHO cells stably transfected with the human FSH receptor), in the presence of 1e-9 mol/l hFSH, 37° C. for 2 h; read-out: IC50 (FSH-antagonistic effect in the HTRF assay).
T1 construct: expressed in transfected cells; host or cells: CHO cells (hFSHR clone 16)
T1 sequence (P23945 18-695): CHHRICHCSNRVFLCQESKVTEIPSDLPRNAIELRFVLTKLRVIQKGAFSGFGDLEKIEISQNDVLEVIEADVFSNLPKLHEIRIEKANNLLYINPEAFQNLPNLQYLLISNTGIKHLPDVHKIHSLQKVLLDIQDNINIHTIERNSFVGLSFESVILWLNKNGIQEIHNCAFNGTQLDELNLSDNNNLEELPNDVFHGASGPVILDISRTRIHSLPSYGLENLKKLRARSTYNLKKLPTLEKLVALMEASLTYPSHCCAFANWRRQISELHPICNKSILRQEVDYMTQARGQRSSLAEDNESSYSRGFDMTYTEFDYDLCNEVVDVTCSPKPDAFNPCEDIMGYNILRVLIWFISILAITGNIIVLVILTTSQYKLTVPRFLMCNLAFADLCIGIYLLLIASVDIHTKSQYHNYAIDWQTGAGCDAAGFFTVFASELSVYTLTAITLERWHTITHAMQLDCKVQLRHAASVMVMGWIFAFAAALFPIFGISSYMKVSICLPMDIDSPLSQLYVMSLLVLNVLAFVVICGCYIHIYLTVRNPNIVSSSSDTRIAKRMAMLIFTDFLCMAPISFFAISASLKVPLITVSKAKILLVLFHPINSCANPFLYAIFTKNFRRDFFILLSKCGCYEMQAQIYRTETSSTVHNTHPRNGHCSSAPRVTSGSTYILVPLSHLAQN
Assay type: cell-based
Experimental: HTRF Assay for Measuring cAMP in Cells
The method is based on a competitive immunoassay between native cAMP, which has been produced by the cells, and cAMP which is labelled with XL665. The tracer binding was visualized by a monoclonal antibody, anti-cAMP labelled with cryptate [HTRF=homogeneous time-resolved fluorescence].
The specific signal is inversely proportional to the cAMP concentration of the samples employed.
The 665 nm/620 nm fluorescence ratio was evaluated.
The following material was used: 96-well plates for the tissue culture, 96-well plates with black edge and black base (e.g. Fluotrac 600 from Greiner), 96-well plates for the substance dilutions of polypropylene and cAMP Femtomolar (4000 wells Kit, CIS Bio International # 62AM1PEC).
The following reagents were used: BSA (bovine serum albumin) Fraction V protease-free, IBMX (3-isobutyl-1-methylxanthine), hFSH (human follicle stimulating hormone), Triton X-100 analytical grade, potassium fluoride analytical grade, G 418 (Geneticin) and Accutase.
Buffer 1 (washing and testing buffer) contained PBS, 1 mM CaCl2, 1 mM MgCl2, 0.2% glucose; 0.1% BSA, 1 mM IBMX.
Buffer 2 (2× lysis buffer) contained 1% Triton X-100 in PBS (without CaCl2 and MgCl2).
Buffer 3 (assay buffer) contained 50 mM potassium phosphate buffer (pH 7.0); 800 mM potassium fluoride; 0.2% BSA (always added fresh).
On day 1, the cells were seeded in 96-well plates (3×10^4 cells per well hFSHR clone 16 cells (CHO cells stably transfected with the human FSH receptor in 150 μl of medium).
The next day, test substance dilutions were made up. For this purpose, all the substances were diluted in ice-cold buffer 1 (with or without hFSH), and the substance dilutions were placed on ice until applied to the cells.
The cell supernatant was then aspirated off, and the cells were washed 2× with 200 μl of buffer 1. The cells were treated with 60 μl of the appropriate substance concentrations at 37° C. for 2 h. The cells were then lysed with 60 μl of buffer 2 (put onto the supernatant) (on a plate shaker at RT for 30 min).
The test conjugates (XL-665 and anti-cAMP cryptate) were diluted in buffer 3 in accordance with the manufacturers' information. The actual mixture for measurement was pipetted into a black 96-well plate (in each case 15 μl of the cell lysate diluted with 35 μl of buffer 1; firstly 25 μl of XL-665 conjugate were pipetted and, after 10 min, 25 μl of the anti-cAMP cryptate were added). This is followed by incubation at RT for 90 minutes. The measurement was carried out in a PheraStar (BMG).
Tissue Culture Conditions
Dose-effect curve (hFSH) for the human receptor: 1e-8, 3e-9, 1 e-9, 3e-10, 1 e-10, 3e-11, 1e-11, 3e-12 mol/l.
The test substances were employed in suitable dilutions in the absence (test for agonism) and in the presence of 1e-9 mol/l hFSH.
The values of the well ratio were averaged and then entered directly in SigmaPlot versus the concentrations. The maximum and minimum values were determined for each plate, and half the difference is to be regarded as IC50.

Row | Structure (SMILES) | IC50 [µM]
1 | COc1ccc(-c2cc3c(c(C(=O)N[C@@H](CO)Cc4c[nH]c5ccccc45)c2)OCCO3)cc1F [Example 109, 7-(3-Fluoro-4-methoxy-phenyl)-2,3-dihydro-benzo[1,4]dioxine-5-carboxylic acid [(R)-1-hydroxymethyl-2-(1H-indol-3-yl)-ethyl]-amide] | 0.95
2 | CS(=O)(=O)c1cccc(-c2cc3c(c(C(=O)N[C@@H](CO)Cc4c[nH]c5ccccc45)c2)OCCO3)c1 [Example 116, 7-(3-Methanesulfonyl-phenyl)-2,3-dihydro-benzo[1,4]dioxine-5-carboxylic acid [(R)-1-hydroxymethyl-2-(1H-indol-3-yl)-ethyl]-amide] | 2
3 | COC(=O)c1ccc(-c2cc3c(c(C(=O)N[C@@H](CO)Cc4c[nH]c5ccccc45)c2)OCCO3)cc1OC [Example 118, 4-{8-[(R)-1-Hydroxymethyl-2-(1H-indol-3-yl)-ethylcarbamoyl]-2,3-dihydro-benzo[1,4]dioxin-6-yl}-2-methoxy-benzoic acid methyl ester] | 0.13
4 | CN(C)S(=O)(=O)c1ccc(-c2cc3c(c(C(=O)N[C@@H](CO)Cc4c[nH]c5ccccc45)c2)OCCO3)cc1 [Example 123, 7-(4-Dimethylsulfamoyl-phenyl)-2,3-dihydro-benzo[1,4]dioxine-5-carboxylic acid [(R)-1-hydroxymethyl-2-(1H-indol-3-yl)-ethyl]-amide] | 2
5 | O=C(N[C@@H](CO)Cc1c[nH]c2ccccc12)c1cc(-c2cccc(Cl)c2)cc2c1OCCO2 [Example 130, 7-(3-Chloro-phenyl)-2,3-dihydro-benzo[1,4]dioxine-5-carboxylic acid [(R)-1-hydroxymethyl-2-(1H-indol-3-yl)-ethyl]-amide] | 3
6 | Nc1cccc(-c2cc3c(c(C(=O)N[C@@H](CO)Cc4c[nH]c5ccccc45)c2)OCCO3)c1 [Example 135, 7-(3-Amino-phenyl)-2,3-dihydro-benzo[1,4]dioxine-5-carboxylic acid [(R)-1-hydroxymethyl-2-(1H-indol-3-yl)-ethyl]-amide] | 0.8
7 | CNC(=O)c1ccc(-c2cc3c(c(C(=O)N[C@@H](CO)Cc4c[nH]c5ccccc45)c2)OCCO3)cc1 [Example 142, 7-(4-Methylcarbamoyl-phenyl)-2,3-dihydro-benzo[1,4]dioxine-5-carboxylic acid [(R)-1-hydroxymethyl-2-(1H-indol-3-yl)-ethyl]-amide] | 0.2
8 | Cc1ccccc1-c1cc2c(c(C(=O)N[C@@H](CO)Cc3c[nH]c4ccccc34)c1)OCCO2 [Example 143, 7-o-Tolyl-2,3-dihydro-benzo[1,4]dioxine-5-carboxylic acid [(R)-1-hydroxymethyl-2-(1H-indol-3-yl)-ethyl]-amide] | 9
9 | CNC(=O)c1ccc(-c2cc3c(c(C(=O)NC(CO)Cc4c[nH]c5c(F)cc(F)cc45)c2)OC(C)(C)CC3)cc1Cl (stereo not drawn) [Example 190, 6-(3-Chloro-4-methylcarbamoyl-phenyl)-2,2-dimethyl-chroman-8-carboxylic acid [2-(5,7-difluoro-1H-indol-3-yl)-1-hydroxymethyl-ethyl]amide] | 0.07
